Several values for one entry are separate records, joined by “and”; a condition that tells them apart may be missing. Equal values may be shown once. Inconclusive results and toxic doses are left out.
Test system: L1210 leukemia ip in BDF1 mice, survival T/C
Assay: NCI In Vivo Anticancer Drug Screen. Data for tumor model L1210 Leukemia (intraperitoneal) in B6D2F1 (BDF1) mice
Conditions: endpoint: mean survival time, higher = longer survival
In short: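 Survival endpoint. Drug-treated group vs vehicle group, expressed as T divided by C. Tumor passaged by transplantation.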

[1] = dose: 50.0 mg/kg/injection, schedule: Q01DX009 (ip), vehicle: saline
[2] = dose: 100.0 mg/kg/injection, schedule: Q01DX009 (ip), vehicle: saline
[3] = dose: 100.0 mg/kg/injection, schedule: Q04DX003 (ip), vehicle: Klucel (hydroxypropylcellulose) (HPC)
[4] = dose: 100.0 mg/kg/injection, schedule: Q04DX003 (ip), vehicle: saline
[5] = dose: 200.0 mg/kg/injection, schedule: Q01DX009 (ip), vehicle: saline
[6] = dose: 200.0 mg/kg/injection, schedule: Q04DX003 (ip), vehicle: Klucel (hydroxypropylcellulose) (HPC)
[7] = dose: 200.0 mg/kg/injection, schedule: Q04DX003 (ip), vehicle: saline
[8] = dose: 400.0 mg/kg/injection, schedule: Q04DX003 (ip), vehicle: Klucel (hydroxypropylcellulose) (HPC)
[9] = dose: 100.0 mg/kg/injection, schedule: Q04DX003 (ip), vehicle: saline with Tween-80
[10] = dose: 200.0 mg/kg/injection, schedule: Q04DX003 (ip), vehicle: saline with Tween-80
[11] = dose: 50.0 mg/kg/injection, schedule: Q04DX003 (ip), vehicle: saline
[12] = dose: 100.0 mg/kg/injection, schedule: Q01DX009 (ip), vehicle: Klucel (hydroxypropylcellulose) (HPC)
[13] = dose: 200.0 mg/kg/injection, schedule: Q01DX009 (ip), vehicle: Klucel (hydroxypropylcellulose) (HPC)
[14] = dose: 400.0 mg/kg/injection, schedule: Q01DX009 (ip), vehicle: Klucel (hydroxypropylcellulose) (HPC)
[15] = dose: 100.0 mg/kg/injection, schedule: Q01DX009 (ip), vehicle: saline with Tween-80
[16] = dose: 100.0 mg/kg/injection, schedule: Q01DX001 (ip), vehicle: saline
[17] = dose: 200.0 mg/kg/injection, schedule: Q01DX001 (ip), vehicle: saline
[18] = dose: 400.0 mg/kg/injection, schedule: Q01DX001 (ip), vehicle: saline

## Clc1c(C(Cl)(Cl)Cl)nc2ccccc2c1Br
dose: 6.25 mg/kg/injection, schedule: Q01DX009 (ip), vehicle: Klucel (hydroxypropylcellulose) (HPC)
  T/C: 101 % of control
dose: 12.5 mg/kg/injection, schedule: Q01DX009 (ip), vehicle: Klucel (hydroxypropylcellulose) (HPC)
  T/C: 97 % of control
dose: 25.0 mg/kg/injection, schedule: Q01DX009 (ip), vehicle: Klucel (hydroxypropylcellulose) (HPC)
  T/C: 97 % of control

## CCCCCC(C)NC(=O)N(CCCl)N=O (stereo not drawn) (tested in a mixture with another compound)
dose: 12.0 mg/kg/injection, schedule: Q01DX001 (ip), vehicle: saline with Tween-80
  T/C: 109 % of control
dose: 18.0 mg/kg/injection, schedule: Q01DX001 (ip), vehicle: saline with Tween-80
  T/C: 116 % of control
dose: 27.0 mg/kg/injection, schedule: Q01DX001 (ip), vehicle: saline with Tween-80
  T/C: 169 % of control
dose: 40.0 mg/kg/injection, schedule: Q01DX001 (ip), vehicle: saline with Tween-80
  T/C: 151 % of control
dose: 60.0 mg/kg/injection, schedule: Q01DX001 (ip), vehicle: saline with Tween-80
  T/C: 200 % of control
dose: 90.0 mg/kg/injection, schedule: Q01DX001 (ip), vehicle: saline with Tween-80
  T/C: 210 % of control
dose: 133.0 mg/kg/injection, schedule: Q01DX001 (ip), vehicle: saline with Tween-80
  T/C: 88 % of control

## C(=N/OC(c1ccccc1)(c1ccccc1)c1ccccc1)/c1ccccc1
[1]
  T/C: 98 % of control
dose: 75.0 mg/kg/injection, schedule: Q04DX003 (ip), vehicle: saline
  T/C: 92 % of control
[2]
  T/C: 104 % of control
[3]
  T/C: 101 % of control
[4]
  T/C: 95 % of control
dose: 150.0 mg/kg/injection, schedule: Q04DX003 (ip), vehicle: saline
  T/C: 94 % of control
[5]
  T/C: 98 % of control
[6]
  T/C: 103 % of control
[7]
  T/C: 95 % of control
dose: 300.0 mg/kg/injection, schedule: Q04DX003 (ip), vehicle: saline
  T/C: 89 % of control
[8]
  T/C: 101 % of control
dose: 400.0 mg/kg/injection, schedule: Q04DX003 (ip), vehicle: saline
  T/C: 95 % of control

## CC1=CC23C(COC(=O)C24CO4)C(C(=O)O)=CC3C1C (stereo not drawn) (tested in a mixture with another compound)
dose: 1.2 mg/kg/injection, schedule: Q01DX001 (ip), vehicle: saline
  T/C: 101 % of control
dose: 2.5 mg/kg/injection, schedule: Q01DX001 (ip), vehicle: saline
  T/C: 100 % of control

## Cc1ccc(-n2cccc2)cc1
dose: 50.0 mg/kg/injection, schedule: Q04DX002 (ip), vehicle: Klucel (hydroxypropylcellulose) (HPC)
  T/C: 90 % of control
dose: 100.0 mg/kg/injection, schedule: Q04DX002 (ip), vehicle: Klucel (hydroxypropylcellulose) (HPC)
  T/C: 93 % of control and 90 % of control
dose: 200.0 mg/kg/injection, schedule: Q04DX002 (ip), vehicle: Klucel (hydroxypropylcellulose) (HPC)
  T/C: 90 % of control
dose: 400.0 mg/kg/injection, schedule: Q04DX002 (ip), vehicle: Klucel (hydroxypropylcellulose) (HPC)
  T/C: 106 % of control

## N#Cc1ccc(OCc2nc(N)nc(N)c2-c2ccc(Cl)cc2)cc1
[9]
  T/C: 104 % of control
[10]
  T/C: 100 % of control

## Cc1cc(N(CCCCl)CCCCl)ccc1C=Nc1cc(Cl)c(O)c(Cl)c1
[3]
  T/C: 104 % of control
[6]
  T/C: 98 % of control
[8]
  T/C: 101 % of control

## CCN(CC)CCCNc1c2ccccc2nc2ccccc12
dose: 5.0 mg/kg/injection, schedule: Q01DX001 (ip), vehicle: saline
  T/C: 113 % of control
dose: 10.0 mg/kg/injection, schedule: Q01DX001 (ip), vehicle: saline
  T/C: 104 % of control
dose: 20.0 mg/kg/injection, schedule: Q01DX001 (ip), vehicle: saline
  T/C: 115 % of control
dose: 40.0 mg/kg/injection, schedule: Q01DX001 (ip), vehicle: saline
  T/C: 87 % of control

## CN(C)C1CCN(Cc2ccccc2)CC1
[1]
  T/C: 94 % of control
[11]
  T/C: 100 % of control
[2]
  T/C: 96 % of control
[4]
  T/C: 97 % of control
[5]
  T/C: 93 % of control
[7]
  T/C: 92 % of control

## C[n+]1cc(N)cc2ccccc21
dose: 10.0 mg/kg/injection, schedule: Q01DX001 (ip), vehicle: other
  T/C: 105 % of control
dose: 20.0 mg/kg/injection, schedule: Q01DX001 (ip), vehicle: other
  T/C: 105 % of control
dose: 40.0 mg/kg/injection, schedule: Q01DX001 (ip), vehicle: other
  T/C: 109 % of control

## COC(=O)C1C2CC(O)C(C2)C1C(=O)OC (stereo not drawn)
dose: 12.5 mg/kg/injection, schedule: Q04DX003 (ip), vehicle: saline with Tween-80
  T/C: 95 % of control
dose: 25.0 mg/kg/injection, schedule: Q04DX003 (ip), vehicle: saline with Tween-80
  T/C: 103 % of control
dose: 50.0 mg/kg/injection, schedule: Q04DX003 (ip), vehicle: saline with Tween-80
  T/C: 94 % of control

## CCCCCC[Se]CCCCCC
dose: 12.5 mg/kg/injection, schedule: Q01DX009 (ip), vehicle: saline
  T/C: 98 % of control
dose: 25.0 mg/kg/injection, schedule: Q01DX009 (ip), vehicle: saline
  T/C: 96 % of control
dose: 25.0 mg/kg/injection, schedule: Q04DX003 (ip), vehicle: saline
  T/C: 101 % of control
[1]
  T/C: 93 % of control and 102 % of control
[11]
  T/C: 97 % of control
[4]
  T/C: 98 % of control and 100 % of control

## CC(=O)Nc1ccc(S(=O)(=O)N(C)Cc2ccccc2)cc1
[12]
  T/C: 94 % of control
[13]
  T/C: 102 % of control
[14]
  T/C: 107 % of control

## COc1cc(C(=O)NNS(=O)(=O)c2ccccc2)cc(OCc2ccccc2)c1OC
dose: 100.0 mg/kg/injection, schedule: Q04DX002 (ip), vehicle: saline
  T/C: 97 % of control
dose: 200.0 mg/kg/injection, schedule: Q04DX002 (ip), vehicle: saline
  T/C: 97 % of control
dose: 400.0 mg/kg/injection, schedule: Q04DX002 (ip), vehicle: saline
  T/C: 95 % of control

## COc1cc([N+](=O)[O-])c2ncccc2c1
dose: 50.0 mg/kg/injection, schedule: Q01DX009 (ip), vehicle: Klucel (hydroxypropylcellulose) (HPC)
  T/C: 102 % of control
[12]
  T/C: 105 % of control
[3]
  T/C: 94 % of control
[13]
  T/C: 104 % of control
[6]
  T/C: 91 % of control
[14]
  T/C: 115 % of control
[8]
  T/C: 104 % of control

## COc1ccccc1/C=C/C(=O)c1ccccc1
[15]
  T/C: 89 % of control
[9]
  T/C: 98 % of control
[10]
  T/C: 94 % of control
dose: 400.0 mg/kg/injection, schedule: Q01DX009 (ip), vehicle: saline with Tween-80
  T/C: 89 % of control
dose: 400.0 mg/kg/injection, schedule: Q04DX003 (ip), vehicle: saline with Tween-80
  T/C: 96 % of control

## [O]=[Sn]1[O][Bi]([O][Sn](=[O])[O][Bi]2[O][Sn](=[O])[O]2)[O]1
[2]
  T/C: 94 % of control
[5]
  T/C: 94 % of control
dose: 400.0 mg/kg/injection, schedule: Q01DX009 (ip), vehicle: saline
  T/C: 92 % of control

## Clc1ccc(/C=C/c2ccc(Cl)cc2)cc1
dose: 75.0 mg/kg/injection, schedule: Q04DX003 (ip), vehicle: Klucel (hydroxypropylcellulose) (HPC)
  T/C: 95 % of control
dose: 150.0 mg/kg/injection, schedule: Q04DX003 (ip), vehicle: Klucel (hydroxypropylcellulose) (HPC)
  T/C: 95 % of control
dose: 300.0 mg/kg/injection, schedule: Q04DX003 (ip), vehicle: Klucel (hydroxypropylcellulose) (HPC)
  T/C: 98 % of control

## Cc1ccc(S(=O)(=O)CCCl)cc1
[3]
  T/C: 96 % of control
[6]
  T/C: 100 % of control

## O=S(=O)(F)c1c(Cl)cccc1CBr
dose: 25.0 mg/kg/injection, schedule: Q01DX009 (ip), vehicle: saline with Tween-80
  T/C: 100 % of control
dose: 50.0 mg/kg/injection, schedule: Q01DX009 (ip), vehicle: saline with Tween-80
  T/C: 96 % of control
[15]
  T/C: 86 % of control

## c1ccc2c(c1)ccc1c3ccc4ccccc4c3[nH]c21
[16]
  T/C: 95 % of control
[17]
  T/C: 90 % of control
[18]
  T/C: 94 % of control

## NC(N)(C(F)(F)F)C(F)(F)F
[16]
  T/C: 101 % of control
[17]
  T/C: 102 % of control
[18]
  T/C: 98 % of control

## O=C(NC(=O)c1ccccc1)C(=O)c1ccccc1
dose: 100.0 mg/kg/injection, schedule: Q01DX001 (ip), vehicle: saline with Tween-80
  T/C: 94 % of control
dose: 200.0 mg/kg/injection, schedule: Q01DX001 (ip), vehicle: saline with Tween-80
  T/C: 105 % of control
dose: 400.0 mg/kg/injection, schedule: Q01DX001 (ip), vehicle: saline with Tween-80
  T/C: 87 % of control
